Columns and labels:
[1] = Lactam solubility in bio-surfactant solutions (48 h agitation, filtration, HPLC); type: physicochemical
Protocol: Bio-surfactant solutions at the levels shown in the results below were prepared for screening. The maximum level tested was dictated by the solubility of the surfactant in water. The following representative example uses 4-(4-chlorophenyl)-5-methylene-pyrrol-2-one.
Solid lactam was weighed into Whatman® Mini Uniprep sample vials, fitted with a 0.45 μm nylon filter (2.7 to 3.3 mg per vial). 50 μL of a solvent solution was placed into each sample vial, the vial capped and shaken briefly by hand to agitate the solid, then placed on a Thermo Labsystems Wellmix® plate shaker and continuously agitated for 48 hours. After this time, the excess solid in the vial was removed using the integral filter membrane and the resultant solution analysed by HPLC to determine the level of dissolved lactam.
Samples were analysed using an Agilent 1200® series HPLC fitted with a Hypersil Gold C18 column (15×2.1×3 μm), using isocratic elution with 60/40 methanol/water (+0.1% Formic Acid) at a flow rate of 0.4 mL/min, using a DAD detector at 285 nm. 4-(4-Chlorophenyl)-5-methylene-pyrrol-2-one has a retention time of ˜2.8 minutes.
Each test surfactant solution was tested in triplicate and the mean value of lactam in solution calculated. Values of solubility were quoted as the improvement in aqueous solubility vs water alone (i.e. mean level of lactam dissolved in water+solvent/mean level of lactam dissolved in water) to allow comparison between screens conducted on different days.

[2] = produced by Rhodococcus erythropolis grown on n-alkane; cited from earlier work
[3] = Additive Di-rhamnolipid R2, 0% in water (water alone)
[4] = Additive Di-rhamnolipid R2, 0.1% in water
[5] = Additive Di-rhamnolipid R2, 0.5% in water
[6] = Additive Di-rhamnolipid R2, 1% in water
[7] = Additive Di-rhamnolipid R2, 2% in water
[8] = Additive Mono-rhamnolipid R1, 0% in water (water alone)
[9] = Additive Mono-rhamnolipid R1, 0.1% in water
[10] = Additive Mono-rhamnolipid R1, 0.5% in water
[11] = Additive Mono-rhamnolipid R1, 1% in water
[12] = Additive Mono-rhamnolipid R1, 2% in water
[13] = Additive Mono-rhamnolipid R1, 4% in water

Compound: C=C1NC(=O)C=C1c1ccc(Cl)cc1 [4-(4-chlorophenyl)-5-methylene-pyrrol-2-one]
- Mean Lactam Level in Solution [1, 3]: 2.7 ppm
- Solubility Increase vs water alone [1, 3]: 1.0
- Mean Lactam Level in Solution [1, 4]: 15.2 ppm
- Solubility Increase vs water alone [1, 4]: 5.7
- Mean Lactam Level in Solution [1, 5]: 42.6 ppm
- Solubility Increase vs water alone [1, 5]: 15.9
- Mean Lactam Level in Solution [1, 6]: 77.5 ppm
- Solubility Increase vs water alone [1, 6]: 28.9
- Mean Lactam Level in Solution [1, 7]: 139.6 ppm
- Solubility Increase vs water alone [1, 7]: 52.1
- Mean Lactam Level in Solution [1, 8]: 2.7 ppm
- Solubility Increase vs water alone [1, 8]: 1.0
- Mean Lactam Level in Solution [1, 9]: 10.9 ppm
- Solubility Increase vs water alone [1, 9]: 4.1
- Mean Lactam Level in Solution [1, 10]: 39.3 ppm
- Solubility Increase vs water alone [1, 10]: 14.7
- Mean Lactam Level in Solution [1, 11]: 75.3 ppm
- Solubility Increase vs water alone [1, 11]: 28.1
- Mean Lactam Level in Solution [1, 12]: 149.7 ppm
- Solubility Increase vs water alone [1, 12]: 55.9
- Mean Lactam Level in Solution [1, 13]: 194.8 ppm
- Solubility Increase vs water alone [1, 13]: 72.7

Compound: Phosphatidylethanolamine
- CMC [2]: 30 mg/L
- interfacial tension between water and hexadecane [2]: less than 1 mN m^−1
